From paper PMC13422867, “An orally available PfPKG inhibitor blocks Plasmodium’s infection of the liver” (PLOS Pathogens, 2026)

Columns and labels:
[1] = system: P. berghei sporozoites (PbLuc-GFP); experiment: In vivo chemoprotective efficacy against sporozoite liver infection; design: species or system Plasmodium berghei in mice
[2] = Cellular cytotoxicity, hepatocyte nuclear counts; assay type: cell-based, simian; settings: simian, primary cryopreserved simian hepatocytes (lot OQB); cellular cytotoxicity
Excerpt: (§1) Primary cryopreserved hepatocytes were selected based on host-parasite compatibility: primary simian hepatocytes (lot OQB) for P. cynomolgi and human hepatocytes (lot BGW) for P. falciparum (BioIVT Inc., Baltimore, MD, USA). Cells were thawed according to the manufacturer’s protocol and seeded into 384-well collagen-coated assay plates (Greiner Bio-One, Monroe, NC, USA) using InVitroGro CP plating medium (BioIVT). Seeding densities were optimized for uniform monolayer formation, and hepatocytes were allowed to adhere for 24–48 hours before infection. Sporozoites were added at a 1:1.1 hepatocyte-to-sporozoite ratio within 48 hours post-seeding. Automated robotic systems were used for media changes and compound additions to ensure assay consistency and minimize variability associated with manual pipetting.
(§2) Test compounds (PfPKG inhibitors) and assay drug controls (KDU-691 and tafenoquine) were solubilized in DMSO or PBS and serially diluted into 8- or 12-point, 2- or 3-fold series, achieving final assay concentrations ranging from 20 µM to 0.019 µM. Compounds were introduced using a calibrated pin tool controlled by robotic arms (V&P Scientific), ensuring a 1:1000 dilution into assay wells. Media were replenished daily with fresh drug-containing HCM. Compounds were added 1-hour post-infection (p.i.) (day 0) and administered daily for 3 days. Cells were fixed on day 6 p.i. of P. falciparum culture and day 8 for P. cynomolgi infected culture, coinciding with liver stage schizont maturation.
(§3) High-content imaging was performed using the Operetta CLS system (Revvity) and image analysis was performed with Harmony software version 4.9 (Revvity, Waltham, MA, USA). Images were acquired at 10x or 20x magnification using DAPI and TRITC fluorescence channels. Following the established protocol, parasites were classified as hypnozoites or schizonts based on fluorescence intensity (mean and maximum), morphological features (cell roundness and size), and segmentation criteria. Hepatocyte nuclei were identified using Hoechst 33342 staining. Background signal was captured in uninfected, stained wells and subjected to the same parasite detection algorithm. Estimate erroneous parasite counts were then subtracted from infected well counts. Hepatocyte viability was determined by quantifying nuclear counts per well using Hoechst stain intensity thresholds. […] An in-house built Python-based image analysis script identified parasite objects using predefined fluorescence intensity thresholds. […] Parasite size was quantified by calculating the average object area (µm²) of validated parasite structures per well. […] Dose-response inhibition and IC50 were calculated relative to in-plate negative controls (DMSO-treated wells). […]

[3] = in vitro; cited from earlier work
[4] = system: P. berghei sporozoites infecting HepG2 cells; settings: cited from earlier work
[5] = system: P. falciparum CamWT and CamC580Y; settings: ring-stage assays; cited from earlier work
[6] = system: P. falciparum sporozoites; experiment: Sporozoite infection of primary human hepatocytes, high-content imaging; assay type: cell-based, Plasmodium falciparum; settings: Plasmodium falciparum, Hepatocyte
Procedure: Liver stage antimalarial activity was evaluated using sporozoites from P. falciparum (NF54 strain) and P. cynomolgi bastianellii (B strain). P. falciparum-infected Anopheles stephensi mosquitoes were reared at WRAIR, while P. cynomolgi-infected Anopheles dirus mosquitoes were obtained from the Armed Forces Research Institute of Medical Sciences (AFRIMS), Thailand. Sporozoites were isolated by dissecting salivary glands under sterile conditions, followed by gentle mechanical disruption. Freshly isolated sporozoites were immediately used for hepatocyte infection. […]
(§4) Cells were fixed using 4% paraformaldehyde for 20 minutes at room temperature, followed by three PBS washes, and stored at 4°C until further processing. Parasite detection was performed using species-specific primary antibodies, with P. cynomolgi parasites labeled using a mouse monoclonal anti-Plasmodium GAPDH antibody (1.6 μg/mL, European Malaria Reagent Repository) and P. falciparum parasites detected using a rabbit polyclonal anti-PfHSP70 antibody (1:70 dilution, LS Bio, USA). […]
(§5) High-content imaging was performed using the Operetta CLS system (Revvity) and image analysis was performed with Harmony software version 4.9 (Revvity, Waltham, MA, USA). Images were acquired at 10x or 20x magnification using DAPI and TRITC fluorescence channels. […]

P. cynomolgi schizont = experiment: Schizont formation in primary simian hepatocytes, high-content imaging; assay type: cell-based, Plasmodium cynomolgi; settings: Plasmodium cynomolgi, Hepatocyte
Procedure: Liver stage antimalarial activity was evaluated using sporozoites from P. falciparum (NF54 strain) and P. cynomolgi bastianellii (B strain). P. falciparum-infected Anopheles stephensi mosquitoes were reared at WRAIR, while P. cynomolgi-infected Anopheles dirus mosquitoes were obtained from the Armed Forces Research Institute of Medical Sciences (AFRIMS), Thailand. Sporozoites were isolated by dissecting salivary glands under sterile conditions, followed by gentle mechanical disruption. Freshly isolated sporozoites were immediately used for hepatocyte infection.
as §1
as §2, with “Compounds were added 1-hour post-infection (p.i.) (day 0) and administered daily for 3 days. Cells were fixed on day 6 p.i. of P. falciparum culture and day 8 for P. cynomolgi infected culture, coinciding with liver stage schizont maturation.” left out
as §4
as §5, with “channels. Following the established protocol, parasites were classified as hypnozoites or schizonts based on fluorescence intensity (mean and maximum), morphological features (cell roundness and size), and segmentation criteria.” for “channels.”

[7] = system: mutant P. falciparum parasites carrying a Thr618Gln substitution; settings: cited from earlier work
[8] = system: primary human hepatocytes; experiment: Cellular cytotoxicity, hepatocyte nuclear counts; assay type: cell-based; settings: primary human hepatocytes
Excerpt: as §1
(§6) Test compounds (PfPKG inhibitors) and assay drug controls (KDU-691 and tafenoquine) were solubilized in DMSO or PBS and serially diluted into 8- or 12-point, 2- or 3-fold series, achieving final assay concentrations ranging from 20 µM to 0.019 µM. […]
as §3, with “Hepatocyte nuclei were identified using Hoechst 33342 staining. Background signal was captured in uninfected, stained wells and subjected to the same parasite detection algorithm. Estimate erroneous parasite counts were then subtracted from infected well counts.” left out

[9] = Cellular cytotoxicity, hepatocyte nuclear counts; assay type: cell-based, human; settings: human, primary cryopreserved human hepatocytes (lot BGW); cellular cytotoxicity
Excerpt: as §1, §6
as §3, with “Hepatocyte nuclei were identified using Hoechst 33342 staining. Background signal was captured in uninfected, stained wells and subjected to the same parasite detection algorithm. Estimate erroneous parasite counts were then subtracted from infected well counts.” left out

[10] = Intravenous, 10 mg/kg x1 (-0.5 hpi)

SMILES: C[C@@H]1CN(C)CC[C@@H]1c1cc(-c2ccncc2)c(-c2ccc(F)cc2)[nH]1.Cl.Cl [RUPB-61, 4-{5-[(3S,4S)-1,3-Dimethylpiperidin-4-yl]-2-(4-fluorophenyl)-1H-pyrrol-3-yl}pyridine Dihydrochloride]
- No. of mice patent by D21/ No. of mice inoculated [1, 10]: 0/5
- Prepatent period mean ± sd [1, 10]: negative
- No. of mice patent by D21/ No. of mice inoculated ([1]; Oral, 10 mg/kg x1 (-3 hpi)): 0/5
- Prepatent period mean ± sd ([1]; Oral, 10 mg/kg x1 (-3 hpi)): negative
- mice developing detectable blood stage infection in the 3-week monitoring period ([1]; single dose 10 mg/kg, PO (-3 hpi) and IV (-0.5 hpi), 10 mice): none
- CC50 at 3 days [2]: > 20 µM
- first-pass metabolism [3]: minimal
- activity against P. berghei sporozoites infecting HepG2 cells [4]: active
- IC50 against DHA-sensitive CamWT compared with DHA-resistant CamC580Y [5]: similar
- IC50 [6]: 79 nM
- IC50 (P. cynomolgi schizont): 170 nM
- increase in IC50 against Thr618Gln gatekeeper mutant parasites [7]: 15 fold
- cytotoxicity against PHH [8]: no cytotoxicity
- CC50 at 3 days [9]: > 20 µM
